Measured values: patent US12421211B2, “Heterocyclic compounds” (Hoffmann-La Roche Inc., priority 2021, dated 2025)
Where a name gives a salt, the structure may show the parent alone.

System: Acinetobacter baumannii ATCC17961
Assay: Antimicrobial susceptibility testing: 90% growth inhibitory concentration (IC90) determination
Type: cell-based
Conditions: 90% growth inhibitory concentration, Acinetobacter baumannii ATCC17961, Iso-Sensitest broth, OD 600 nm over 16 h; formic acid; formate; read-out: ATCC 17961 IC90
Experimental: Assay Procedures Antimicrobial Susceptibility Testing: 90% Growth Inhibitory Concentration (IC90) Determination
The in vitro antimicrobial activity of the compounds was determined according to the following procedure:
The assay used a 10-points Iso-Sensitest broth medium to measure quantitatively the in vitro activity of the compounds against Acinetobacter baumannii ATCC17961.
Stock compounds in DMSO were serially twofold diluted (e.g. range from 50 to 0.097 μM final concentration) in 384 wells microtiter plates and inoculated with 49 μl the bacterial suspension in Iso-Sensitest medium to have a final cell concentration of ˜5×10^(5) CFU/ml in a final volume/well of 50 ul/well. Microtiter plates were incubated at 35±2° C.
Bacterial cell growth was determined with the measurement of optical density at λ=600 nm each 20 minutes over a time course of 16h. Growth inhibition was calculated during the logarithmic growth of the bacterial cells with determination of the concentration inhibiting 50% (IC50) and 90% (IC90) of the growth.
Table 1 provides the 90% growth inhibitory concentrations (IC90) in micromoles per liter of the compounds of present invention obtained against the strain Acinetobacter baumannii ATCC17961.

| IC90 [nM] | SMILES |
| --- | --- |
| 190 | COCCn1ncc(-c2ccc(-c3cnc(C(=O)Nc4ccc(C(=O)N5CCN(C(=O)C6CC[N+](CC(=O)O)(CC7CNC7)CC6)CC5)c(Cl)c4)n3C)c(F)c2F)c1C (centres unmarked) [Example B30, 2-[1-(azetidin-3-ylmethyl)-4-[4-[2-chloro-4-[[5-[2,3-difluoro-4-[1-(2-methoxyethyl)-5-methyl-pyrazol-4-yl]phenyl]-1-methyl-imidazole-2-carbonyl]amino]benzoyl]piperazine-1-carbonyl]piperidin-1-ium-1-yl]acetic acid; formic acid; formate] |

Same assay, conditions: 90% growth inhibitory concentration, Acinetobacter baumannii ATCC17961, Iso-Sensitest broth, OD 600 nm over 16 h; read-out: ATCC 17961 IC90

| IC90 [nM] | SMILES |
| --- | --- |
| 197 | Cc1nn(CC(=O)Nc2ccc(F)nn2)cc1-c1ccc(-c2cnc(C(=O)Nc3ccc(C(=O)N4CCN(C(=O)C5CC[N+](CC(=O)O)(CC6CNC6)CC5)CC4)c(Cl)c3)n2C)c(F)c1F (stereo not drawn) [Example L6, cis 2-[1-(azetidin-3-ylmethyl)-4-[4-[2-chloro-4-[[5-[2,3-difluoro-4-[1-[2-[(6-fluoropyridazin-3-yl)aminol-2-oxo-ethyl]-3-methyl-pyrazol-4-yl]phenyl]-methyl-imidazole-2-carbonyl]amino]benzoyl]piperazine-1-carbonyl]piperidin-1-ium-1-yl]acetic acid; formate] |

Same assay, conditions: Acinetobacter baumannii, ATCC17961, 16 h, 90% growth inhibitory concentration, Acinetobacter baumannii ATCC17961, Iso-Sensitest broth, OD 600 nm over 16 h; read-out: ATCC 17961 IC90

| SMILES | IC90 [nM] |
| --- | --- |
| COCCn1nc(C)c(-c2ccc(-c3cnc(C(=O)Nc4ccc(C(=O)N5CCN(C(=O)C6CC[N+](C)(C)CC6)CC5)c(Cl)c4)n3C)c(F)c2F)c1C [Example A2, N-[3-chloro-4-[4-(1,1-dimethylpiperidin-1-ium-4-carbonyl)piperazine-1-carbonyl]phenyl]-5-[2,3-difluoro-4-[1-(2-methoxyethyl)-3,5-dimethyl-pyrazol-4-yl]phenyl]-1-methyl-imidazole-2-carboxamide; formate] | 230 |
| COCCn1cc(-c2ccc(-c3cnc(C(=O)Nc4ccc(C(=O)N5CCN(C(=O)C[N+]6(C)CCC(N)C6)CC5)c(Cl)c4)n3C)c(F)c2F)c(C)n1 (centres unmarked) [Example C3, N-[4-[4-[2-(3-amino-1-methyl-pyrrolidin-1-ium-1-yl)acetyl]piperazine-1-carbonyl]-3-chloro-phenyl]-5-[2,3-difluoro-4-[1-(2-methoxyethyl)-3-methyl-pyrazol-4-yl]phenyl]-1-methyl-imidazole-2-carboxamide; formic acid; formate] | 100 |
| COCCn1cc(-c2ccc(-c3cnc(C(=O)Nc4ccc(C(=O)N5CCN(C(=O)C[N+]6(C)C[C@H](OC)[C@@H](N)C6)CC5)c(Cl)c4)n3C)c(F)c2F)c(C)n1 (stereo partly drawn) [Example C5, N-[4-[4-[2-[(3S,4S)-3-amino-4-methoxy-1-methyl-pyrrolidin-1-ium-1-yl]acetyl]piperazine-1-carbonyl]-3-chloro-phenyl]-5-[2,3-difluoro-4-[1-(2-methoxyethyl)-3-methyl-pyrazol-4-yl]phenyl]-1-methyl-imidazole-2-carboxamide; formic acid; formate] | 240 |
| COCCn1ncc(-c2ccc(-c3cnc(C(=O)Nc4ccc(C(=O)N5CCN(C(=O)C[N+]6(C)CCC(N)C6)CC5)c(Cl)c4)n3C)c(F)c2F)c1C (centres unmarked) [Example C2, N-[4-[4-[2-(3-amino-1-methyl-pyrrolidin-1-ium-1-yl)acetyl]piperazine-1-carbonyl]-3-chloro-phenyl]-5-[2,3-difluoro-4-[1-(2-methoxyethyl)-5-methyl-pyrazol-4-yl]phenyl]-1-methyl-imidazole-2-carboxamide; formic acid; formate] | 41 |

Second part, the molecule after the results:

| IC90 [nM] | SMILES |
| --- | --- |
| 130 | Cc1nn(CC(=O)Nc2cccc(F)c2)cc1-c1ccc(-c2cnc(C(=O)Nc3ccc(C(=O)N4CCN(C(=O)C5CC[N+](C)(C)CC5)CC4)c(Cl)c3)n2C)c(F)c1F [Example G13, N-[3-chloro-4-[4-(1,1-dimethylpiperidin-1-ium-4-carbonyl)piperazine-1-carbonyl]phenyl]-5-[2,3-difluoro-4-[1-[2-(3-fluoroanilino)-2-oxo-ethyl]-3-methyl-pyrazol-4-yl]phenyl]-1-methyl-imidazole-2-carboxamide; chloride] |
| 560 | Cn1c(-c2ccc(-c3ccc(NCCC(N)=O)cn3)c(F)c2F)cnc1C(=O)Nc1ccc(C(=O)N2CCN(C(=O)C3CC[N+](C)(C)CC3)CC2)c(Cl)c1 [Example F63, 5-[4-[5-[(3-amino-3-oxo-propyl)amino]-2-pyridyl]-2,3-difluoro-phenyl]-N-[3-chloro-4-[4-(1,1-dimethylpiperidin-1-ium-4-carbonyl)piperazine-1-carbonyl]phenyl]-1-methyl-imidazole-2-carboxamide; formate] |
| 270 | Cc1c(-c2ccc(-c3cnc(C(=O)Nc4ccc(C(=O)N5CCN(C(=O)[C@@H]6C[C@@H](O)C[N+]6(C)C)CC5)c(Cl)c4)n3C)c(F)c2F)cnn1CCCO [Example F17, N-[3-chloro-4-[4-[(2S,4R)-4-hydroxy-1,1-dimethyl-pyrrolidin-1-ium-2-carbonyl]piperazine-1-carbonyl]phenyl]-5-[2,3-difluoro-4-[1-(3-hydroxypropyl)-5-methyl-pyrazol-4-yl]phenyl]-1-methyl-imidazole-2-carboxamide; formate] |
| 590 | COc1cccc(CCn2cc(-c3ccc(-c4cnc(C(=O)Nc5ccc(C(=O)N6CCN(C(=O)C7CC[N+](C)(C)CC7)CC6)c(Cl)c5)n4C)c(F)c3F)c(C)n2)n1 [Example F54, N-[3-chloro-4-[4-(1,1-dimethylpiperidin-1-ium-4-carbonyl)piperazine-1-carbonyl]phenyl]-5-[2,3-difluoro-4-[1-[2-(6-methoxy-2-pyridyl)ethyl]-3-methyl-pyrazol-4-yl]phenyl]-1-methyl-imidazole-2-carboxamide; formate] |
| 339 | COCCn1ncc(-c2ccc(-c3cnc(C(=O)Nc4ccc(C(=O)N5CCC(C(=O)NCCCc6cc[n+](CC(=O)O)c(CCCN)c6)CC5)c(Cl)c4)n3C)c(F)c2F)c1C [Example O12, 2-[2-(3-aminopropyl)-4-[3-[[1-[2-chloro-4-[[5-[2,3-difluoro-4-[1-(2-methoxyethyl)-5-methyl-pyrazol-4-yl]phenyl]-1-methyl-imidazole-2-carbonyl]amino]benzoyl]isonipecotoyl]amino]-propyl]pyridin-1-ium-1-yl]acetic acid; formate] |
| 330 | Cn1c(-c2ccc(-c3cn(CCC(N)=O)nc3C(F)(F)F)c(F)c2F)cnc1C(=O)Nc1ccc(C(=O)N2CCN(C(=O)C3CC[N+](C)(C)CC3)CC2)c(Cl)c1 [Example F1, 5-[4-[1-(3-amino-3-oxo-propyl)-3-(trifluoromethyl)pyrazol-4-yl]-2,3-difluoro-phenyl]-N-[3-chloro-4-[4-(1,1-dimethylpiperidin-1-ium-4-carbonyl)piperazine-1-carbonyl]phenyl]-1-methyl-imidazole-2-carboxamide; formate] |
| 100 | Cc1nn(CC(=O)NC23CC(C2)C3)cc1-c1ccc(-c2cnc(C(=O)Nc3ccc(C(=O)N4CCN(C(=O)C5CC[N+](C)(C)CC5)CC4)c(Cl)c3)n2C)c(F)c1F [Example G3, 5-[4-[1-[2-(1-bicyclo[1.1.1]pentanylamino)-2-oxo-ethyl]-3-methyl-pyrazol-4-yl]-2,3-difluoro-phenyl]-N-[3-chloro-4-[4-(1,1-dimethylpiperidin-1-ium-4-carbonyl)piperazine-1-carbonyl]phenyl]-1-methyl-imidazole-2-carboxamide; formate] |
| 230 | Cc1n[nH]c(C)c1-c1ccc(-c2cnc(C(=O)Nc3ccc(C(=O)N4CCN(C(=O)CN(C)C)CC4)c(Cl)c3)n2C)cc1 [Example E16, N-[3-chloro-4-[4-[2-(dimethylamino)acetyl]piperazine-1-carbonyl]phenyl]-5-[4-(3,5-dimethyl-1H-pyrazol-4-yl)phenyl]-1-methyl-imidazole-2-carboxamide] |

Same assay, conditions: Acinetobacter baumannii, ATCC17961, 16 h, read-out: ATCC 17961 IC90

| SMILES | IC90 [nM] |
| --- | --- |
| COCCn1cc(-c2ccc(-c3cnc(C(=O)Nc4ccc(C(=O)N5CCN(C(=O)[C@H]6CC[N@+](CC(=O)O)(CC7CNC7)CC6)CC5)c(Cl)c4)n3C)c(F)c2F)c(C)n1 [Example Q4, cis 2-[1-(azetidin-3-ylmethyl)-4-[4-[2-chloro-4-[[5-[2,3-difluoro-4-[1-(2-methoxyethyl)-3-methyl-pyrazol-4-yl]phenyl]-1-methyl-imidazole-2-carbonyl]amino]benzoyl]piperazine-1-carbonyl]piperidin-1-ium-1-yl]acetic acid formate;] | 195 |
| COCCn1ncc(-c2ccc(-c3cnc(C(=O)Nc4ccc(C(=O)N5CCN(C(=O)C6CC[N+](C)(CC(=O)NN)CC6)CC5)c(Cl)c4)n3C)c(F)c2F)c1C (centres unmarked) [Example B17, N-[3-chloro-4-[4-[1-(2-hydrazino-2-oxo-ethyl)-1-methyl-piperidin-1-ium-4-carbonyl]piperazine-1-carbonyl]phenyl]-5-[2,3-difluoro-4-[1-(2-methoxyethyl)-5-methyl-pyrazol-4-yl]phenyl]-1-methyl-imidazole-2-carboxamide; formic acid; formate] | 260 |
| COCCn1ncc(-c2ccc(-c3cnc(C(=O)Nc4ccc(C(=O)NCC5CCN(C(=O)C[N+](C)(C)C)CC5)c(Cl)c4)n3C)c(F)c2F)c1C [Example A9, [2-[4-[[[2-chloro-4-[[5-[2,3-difluoro-4-[1-(2-methoxyethyl)-5-methyl-pyrazol-4-yl]phenyl]-1-methyl-imidazole-2-carbonyl]amino]benzoyl]amino]methyl]-1-piperidyl]-2-oxo-ethyl]-trimethyl-ammonium; 2,2,2-trifluoroacetate] | 160 |
